In US20230096028A1, “BICYCLIC HETEROCYCLYL COMPOUNDS AND USES THEREOF” (Revolution Medicines, Inc., priority 2019, published 2023):

Key:
SOS1 = target: T1, SOS1 (Homo sapiens, UniProt Q07889); assay: Bodipy-FL-GTP Association Assay (SOS1-mediated exchange of KRAS-4B:GDP to KRAS-4B:GTP); format: biochemical; settings: SOS1-mediated BODIPY FL GTP exchange on KRAS-4B, 22° C.
T1 construct: SOS1 (Cytoskeleton Inc., Cat. CS-GE02); purchased Cytoskeleton Inc. CS-GE02
T1 sequence (Q07889 564-1049 limits assumed): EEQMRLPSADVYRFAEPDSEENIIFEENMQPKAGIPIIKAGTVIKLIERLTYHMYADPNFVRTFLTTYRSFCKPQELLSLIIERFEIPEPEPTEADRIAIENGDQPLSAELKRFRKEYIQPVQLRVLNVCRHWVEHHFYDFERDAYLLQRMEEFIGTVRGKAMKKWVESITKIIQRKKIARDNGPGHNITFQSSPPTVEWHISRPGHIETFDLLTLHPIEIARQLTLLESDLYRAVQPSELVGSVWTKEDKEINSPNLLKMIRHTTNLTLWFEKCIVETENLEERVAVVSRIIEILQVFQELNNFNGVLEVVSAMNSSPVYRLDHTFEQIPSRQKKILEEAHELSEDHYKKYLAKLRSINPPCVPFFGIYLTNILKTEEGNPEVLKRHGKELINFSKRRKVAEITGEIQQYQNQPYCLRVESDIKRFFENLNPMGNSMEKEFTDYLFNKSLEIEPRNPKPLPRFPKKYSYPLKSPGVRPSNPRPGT
Protocol: A low IC50 value for a given compound is indicative of high potency of said compound in inhibiting the guanine nucleotide exchange factor (GEF) activity of SOS1 on KRAS-4B in this assay setting.
Reagents: BODIPY FL GTP (ThermoFisher Scientific, Cat. G12411); KRAS4-B (Cytoskeleton Inc., Cat. CSRS03); SOS1 (Cytoskeleton Inc., Cat. CS-GE02); 2×Assay Buffer: 40 mM Tris-HCl, pH 7.5; 100 mM NaCl; 20 mM MgCl2; 0.1 mg/mL BSA; 0.02% NP-40
Assay Procedure: Test compounds were dissolved in DMSO to create 20 mM master stocks. The stocks were diluted in a 3× dilution series in 100% DMSO to achieve 100× compound stocks. A 1 μl spot of each test compound stock was delivered to two adjacent wells of a 96-well assay plate prior to running the assay. Reaction Mix preparation: The following were mixed in order at room temperature to obtain the “Reaction Mix” (5.75 mL 2× Exchange Buffer; 3.22 mL MilliQ ddH2O; 3 μL 5 mM BODIPY FL GTP; 230 μL 50 μM KRAS-4B; 9.203 mL Total volume. Reaction initiation: 80 μL of Reaction Mix was pipetted into each well of a half-area black 96-well plate (Corning, Cat. 3686) containing either a 1 μL spot of DMSO or a 1 μL spot test compound at the concentrations listed above. 20 μL of 1 μM SOS1 was then added to each well to initiate the reaction. For the no GEF control wells this was replaced with 1× exchange buffer. Kinetic measurement: The reaction was monitored in a SpectraMax M2 Microplate Reader (Molecular Devices) under the following protocol: 5 second rapid circular mixing before first read; 61 readings, 30 seconds apart; Assay temperature: 22° C.; Excitation wavelength: 485 nm; Emission wavelength: 513 nm. Data Analysis: The Vmax values for the SOS1-mediated BODIPY FL GTP exchange curves in the presence of test compounds were normalized to the most dilute test sample columns or DMSO only control wells to give the % Activity for each concentration of test compound. Plots of % Activity vs. the Log 10 of the compound concentration were fit by non-linear regression to a 4-parameter logistic model.

[1] = target: T2, SOS1 catalytic domain (residues 564-1049) (Homo sapiens, UniProt Q07889); assay: Potency Assay: binding affinity to SOS1 using Surface Plasmon Resonance (SPR); set-up: SOS1 catalytic domain (residues 564-1049) immobilized on a sensor chip; settings: immobilized SOS1 catalytic domain (residues 564-1049), read-out: SOS1 SPR Equilibrium Kd
T2 sequence (Q07889 564-1049): T1 sequence (Q07889 564-1049 limits assumed)
In short: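 Kd was obtained by plotting binding response, taken just before association ended, versus compound concentration on a Biacore 8K. Compounds flowed at 50 μL/min over streptavidin-captured avi-SOS1 catalytic domain (~6000 RU), followed by buffer dissociation; HEPES 0.01 M/NaCl 0.15 M/0.05% P20 buffer, double-referenced.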

[2] = test system: PC-9 cells (EGFR Ex19Del); assay: Potency Assay: pERK (SOS1 pERK IC50 Assay, AlphaLISA SureFire Ultra p-ERK1/2); format: cell-based; settings: Homo sapiens; PC-9 cells (EGFR Ex19Del), 1 hour incubation, AlphaLISA p-ERK1/2; read-out: SOS1 pERK IC50
In short: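 Cellular pERK1/2 by AlphaLISA SureFire Ultra after 1 h compound exposure (37° C., highest concentration 10 μM, 3-fold steps, duplicates) of EGFR Ex19Del PC-9 cells seeded the day before. A 4-parameter fit of signal versus log concentration gives IC50.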

[3] = target: T2, SOS1 catalytic domain (residues 564-1049); assay: Mode of Action Assay: inhibition of SOS1 nucleotide exchange activity (SOS1 TR-FRET IC50 Assay)

Row | IC50 (SOS1) [nM] | Kd [1] [nM] | IC50 [2] [nM] | IC50 [3] [nM] | Structure (SMILES)
1 | < 1000 |  |  |  | C[C@@H](Nc1ncnc2c1CN(C(=O)C1CCN(C)CC1)C2)c1cc(N)cc(C(F)(F)F)c1 [Example 17]
2 | < 1000 |  |  |  | C[C@@H](Nc1nc(Cl)nc2c1CN(C(=O)N1CCOCC1)C2)c1cc(N)cc(C(F)(F)F)c1 [Example 1, N-[(1R)-1-[3-amino-5-(trifluoromethyl)phenyl]ethyl]-2-chloro-6-(morpholine-4-carbonyl)-5H,6H,7H-pyrrolo[3,4-d]pyrimidin-4-amine]
3 | < 1000 |  |  |  | C[C@@H](Nc1nc(Cl)nc2c1CN(C(=O)N1CCOCC1)CC2)c1cc(N)cc(C(F)(F)F)c1 [Example 3, N-[(1R)-1-[3-amino-5-(trifluoromethyl)phenyl]ethyl]-2-chloro-6-(morpholine-4-carbonyl)-5H,6H,7H,8H-pyrido[4,3-d]pyrimidin-4-amine]
4 | < 1000 |  |  |  | C[C@@H](Nc1ncnc2c1CN(C(=O)N1CCOCC1)C2)c1cc(N)cc(C(F)(F)F)c1 [Example 16]
5 | < 1000 |  |  |  | C[C@@H](Nc1nc(Cl)nc2c1CN(CC1CCOC1)C2)c1cc(N)cc(C(F)(F)F)c1 (stereo partly drawn) [Example 20]
6 | < 1000 |  |  |  | Cc1nc2c(c(N[C@H](C)c3cc(N)cc(C(F)(F)F)c3)n1)CN(C(=O)N1CCOCC1)C2 [Example 4, N-[(1R)-1-[3-amino-5-(trifluoromethyl)phenyl]ethyl]-2-methyl-6-(morpholine-4-carbonyl)-5H,6H,7H-pyrrolo[3,4-d]pyrimidin-4-amine]
7 | > 5000 |  |  |  | C[C@@H](Nc1nc(Cl)nc2c1CN([C@H]1CC[C@@H](O)CC1)C2)c1cc(N)cc(C(F)(F)F)c1 [Example 8, cis-4-(4-{[(1R)-1-[3-amino-5-(trifluoromethyl)phenyl]ethyl]amino}-2-chloro-5H,6H,7H-pyrrolo[3,4-d]pyrimidin-6-yl)cyclohexan-1-ol]
8 | 1000 to 5000 |  |  |  | Cc1nc2c(c(N[C@H](C)c3cc(N)cc(C(F)(F)F)c3)n1)CN(C(=O)N1CCOCC1)CC2 [Example 2, N-[(1R)-1-[3-amino-5-(trifluoromethyl)phenyl]ethyl]-2-methyl-6-(morpholine-4-carbonyl)-5H,6H,7H,8H-pyrido[4,3-d]pyrimidin-4-amine]
9 | 1000 to 5000 |  |  |  | C[C@@H](Nc1nc(O)nc2c1CN(C(=O)N1CCOCC1)C2)c1cc(N)cc(C(F)(F)F)c1 [Example 15]
10 |  | > 400 | > 1000 | > 1000 | Nc1cc(CNc2nc(Cl)nc3c2CN(C(=O)N2CCOCC2)C3)cc(C(F)(F)F)c1 [Example 135, N-{[3-amino-5-(trifluoromethyl)phenyl]methyl}-2-chloro-6-(morpholine-4-carbonyl)-5H,6H,7H-pyrrolo[3,4-d]pyrimidin-4-amine]
11 |  | < 400 | < 1000 | < 1000 | C[C@@H](Nc1nc(Cl)nc2c1CN(C(=O)N1CCNC(C(F)(F)F)C1)C2)c1cc(N)cc(C(F)(F)F)c1 (stereo partly drawn) [Example 359]
12 |  | < 400 | < 1000 | < 1000 | C[C@@H](Nc1nc(Cl)nc2c1CN(C(=O)N1CCN(C3COC3)CC1)C2)c1cccc(C(F)(F)CO)c1 [Example 357]
13 |  | < 400 | < 1000 | < 1000 | C[C@@H](Nc1nc(Cl)nc2c1CN(C(=O)N1CCNCC(F)C1)C2)c1cccc(C(F)F)c1F (stereo partly drawn) [Example 404]
14 |  | > 400 | > 1000 | > 1000 | COc1nccnc1C(=O)N1CCc2nc(Cl)nc(N[C@H](C)c3cc(N)cc(C(F)(F)F)c3)c2C1 [Example 231]
15 |  | < 400 | < 1000 | < 1000 | C[C@@H](Nc1nc(Cl)nc2c1CN(C(=O)N1CCNCC1c1cccnc1)C2)c1cccc(C(F)F)c1F (stereo partly drawn) [Example 386]
16 |  | < 400 | < 1000 | < 1000 | C[C@@H](Nc1nc(Cl)nc2c1CN(C(=O)N1CC3CCC1CN3)C2)c1cccc(C(F)F)c1F (stereo partly drawn) [Example 384]
17 |  | < 400 | > 1000 | > 1000 | C[C@@H](Nc1nc(Cl)nc2c1CN(C(=O)c1csc(C3CCNCC3)n1)C2)c1cc(N)cc(C(F)(F)F)c1 [Example 92]
18 |  | < 400 | < 1000 | < 1000 | C[C@@H](Nc1nc(Cl)nc2c1CN(S(=O)(=O)N1CCOCC1)CC2)c1cc(N)cc(C(F)(F)F)c1 [Example 29, N-[(1R)-1-[3-amino-5-(trifluoromethyl)phenyl]ethyl]-2-chloro-6-morpholinosulfonyl-7,8-dihydro-5H-pyrido[4,3-d]pyrimidin-4-amine]
19 |  | < 400 | < 1000 | < 1000 | CNC1(C(=O)N2Cc3nc(Cl)nc(N[C@H](C)c4cccc(C(F)F)c4F)c3C2)CCOC1 (stereo partly drawn) [Example 334]
20 |  | < 400 | < 1000 | < 1000 | C[C@@H](Nc1nc(Cl)nc2c1CN(C(=O)C1(F)CCNCC1)C2)c1cc(N)cc(C(F)(F)F)c1 [Example 272]
21 |  | < 400 | < 1000 | < 1000 | CNc1nc2c(c(N[C@H](C)c3cc(N)cc(C(F)(F)F)c3)n1)CN(C(=O)N1CCOCC1)C2 [Example 125, N4-[(1R)-1-[3-amino-5-(trifluoro-methyl)phenyl]ethyl]-N2-methyl-6-(morpholine-4-carbonyl)-5H,6H,7H-pyrrolo[3,4-d]pyrimidine-2,4-diamine]
22 |  | < 400 | > 1000 | < 1000 | C[C@@H](Nc1nc(Cl)nc2c1CN(C(=O)C1CCNCC1F)C2)c1cccc(C(F)F)c1F (stereo partly drawn) [Example 305]
23 |  | < 400 | < 1000 | < 1000 | C[C@@H](Nc1nc(Cl)nc2c1CN(S(=O)(=O)C1CC1)CC2)c1cc(N)cc(C(F)(F)F)c1 [Example 452]
24 |  | < 400 | > 1000 | < 1000 | C[C@@H](Nc1nc(C2CNC2)nc2c1CN(C(=O)N1CCOCC1)C2)c1cccc(C(F)F)c1F [Example 446, [2-(azetidin-3-yl)-4-[[(1R)-1-[3-(difluoromethyl)-2-fluoro-phenyl]ethyl]amino]-5,7-dihydropyrrolo[3,4-d]pyrimidin-6-yl]-morpholino-methanone]
25 |  | < 400 | < 1000 | < 1000 | C[C@@H](Nc1nc(Cl)nc2c1CN(C(=O)[C@]13CN[C@H](CO1)C3)C2)c1cccc(C(F)F)c1F [Example 290]
26 |  | < 400 | < 1000 | < 1000 | C[C@@H](Nc1nc(Cl)nc2c1CN(C(=O)C13CN(C1)S(=O)(=O)C3)C2)c1cccc(C(F)F)c1F [Example 297]
27 |  | < 400 | < 1000 | < 1000 | C[C@@H](Nc1nc(Cl)nc2c1CN(C(=O)N1CCc3ccncc31)C2)c1cc(N)cc(C(F)(F)F)c1 [Example 142]

Row | Structure (SMILES) | IC50 (SOS1) [nM] | Kd [1] [nM] | IC50 [2] [nM] | IC50 [3] [nM]
28 | C[C@@H](Nc1nc(Cl)nc2c1CC(N1CCOCC1)CC2)c1cccc(C(F)(F)F)c1 (stereo partly drawn) [Example 435] |  | < 400 | > 1000 | < 1000
